From PMC11001709, “Anti-toxoplasma activity and DNA-binding of copper(II) and zinc(II) coordination compounds with 5-nitroimidazole-based ligands” (Journal of Biological Inorganic Chemistry, 2023)

System: ct-DNA
Assay: UV-Vis absorption titration with ct-DNA (Kb)
Type: binding, calf
Conditions: band at 320 nm, cacodylate/NaCl buffer pH 7.25, 1 h
Description: For the UV–Vis, fluorescence and circular dichroism assays the concentration of ct-DNA was determined on a Varian Cary 100 Scan spectrophotometer from the absorption at 260 nm and the corresponding molar absorptivity of 6600 M^−1 cm^−1 (nucleobase concentration). The stock solutions of the coordination compounds and the free ligands were prepared in cacodylate/NaCl buffer (1 mM cacodylic acid and 20 mM sodium chloride) at pH 7.25. The final samples contained a DMSO concentration of 0.2%.
Absorption titration experiments were carried out by adding increasing concentrations of ct-DNA (0–25 µM) to 10 µM of the compounds in a final volume of 2 mL. The samples were incubated for 1 h at 37 °C, and spectra were collected on a Varian Cary 100 Scan spectrophotometer. For these assays the charge-transfer band of the compounds was followed at 320 nm. The intrinsic binding constant (Kb) was determined from the titration data using Eq. 2:2 DNA/εα-εf=DNA/ε0-εf+1/Kbε0-εf where εa, ε0 and εf are respectively, the molar extinction coefficients of […].

SMILES: Cc1ncc([N+](=O)[O-])n1CCCl.Cc1ncc([N+](=O)[O-])n1CCCl.[Br][Cu][Br] [[Cu(cenz)2Br2]]
- Kb: 450000 M⁻¹
